Data from patent US6872827B2, “Somatostatin analogue compounds” (Chembridge Research Laboratories, Inc., priority 2002, dated 2005).
Several values for one entry are separate records, joined by “and”; a condition that tells them apart may be missing. Equal values may be shown once. Read-outs that look alike come from different tables or passages of the source.

What was measured:
Somatostatin sst1 = target: T1, Somatostatin sst1 (Homo sapiens, UniProt P30872); test: Somatostatin sst1 radioligand binding assay; settings: for inhibition at 10 µM / % inh: Conc 10 μM
T1 construct: host or cells: CHO-K1
T1 sequence (P30872 whole entry): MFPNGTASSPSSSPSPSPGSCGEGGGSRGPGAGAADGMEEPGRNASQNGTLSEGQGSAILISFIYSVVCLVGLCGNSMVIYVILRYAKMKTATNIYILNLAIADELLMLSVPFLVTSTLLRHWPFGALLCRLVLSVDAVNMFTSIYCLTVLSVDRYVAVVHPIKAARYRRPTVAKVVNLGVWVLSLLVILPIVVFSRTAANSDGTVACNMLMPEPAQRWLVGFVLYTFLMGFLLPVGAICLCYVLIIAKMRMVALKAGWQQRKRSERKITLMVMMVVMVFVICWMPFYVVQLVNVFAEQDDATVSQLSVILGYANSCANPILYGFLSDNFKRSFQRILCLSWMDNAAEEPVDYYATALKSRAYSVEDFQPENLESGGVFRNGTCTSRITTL
Protocol: (§1) Compounds of the present invention were assessed for their binding affinity to sst1, sst3, and sst4 receptors by biochemical and radioligand assay according to the following procedures. The assays were conducted by MDS Pharma Services—Taiwan Ltd., Pharmacology Laboratories, 158 Li-The Road, Peitou, Taipei, Taiwan 112, R.O.C.
The protocol for sstl assay was adapted from Liapakis, G., Fitzpatrick, D., Hoeger, C., Rivier, J., Vandlen, R. and Reisine, T. (1996) “Identification of ligand binding determinants in the somatostatin receptor subtypes 1 and 2.”J. Biol. Chem. 271(24): 20331-20339, 1996; and Patel, Y. C. and Srikant, C. B. (1994) “Subtype selectivity of peptide analogs for all five cloned human somatostatin receptors (hsstr 1-5).” Endocrinology 135 (6): 2814-2817, 1994. The protocol were and can be conducted according to the following conditions.
(§2) IC50 values were determined by a non-linear, least squares regression analysis using Data Analysis Toolbox™ (MDL Information Systems, San Leandro, Calif., USA). Where inhibition constants (Ki) are presented, the Ki values were calculated using the equation of Cheng and Prusoff (Cheng, Y., Prusoff, W. H., Biochem. Pharmacol. 22:3099-3108, 1973) using the observed IC50 of the tested compound, the concentration of the radioligand employed in the assay, and the historical values for the Kd of the ligand (obtained experimentally at MDS Pharma Services). Where presented, the Hill coefficient (nH), defining the slope of the competitive binding curve, was calculated using Data Analysis Toolbox™. […] Where IC50, Ki and/or nH data are presented without Standard Error of the Mean (SEM), data are insufficient to be quantitative, and the values presented (Ki, IC50, nH) should be interpreted accordingly.

Somatostatin sst 3 = target: T2, Somatostatin sst 3 (Homo sapiens, UniProt P32745); test: Somatostatin sst3 radioligand binding assay; settings: for inhibition at 10 µM / % inh: Conc 10 μM (Conc not given in some rows)
T2 construct: host or cells: CHO-K1
T2 sequence (P32745 whole entry): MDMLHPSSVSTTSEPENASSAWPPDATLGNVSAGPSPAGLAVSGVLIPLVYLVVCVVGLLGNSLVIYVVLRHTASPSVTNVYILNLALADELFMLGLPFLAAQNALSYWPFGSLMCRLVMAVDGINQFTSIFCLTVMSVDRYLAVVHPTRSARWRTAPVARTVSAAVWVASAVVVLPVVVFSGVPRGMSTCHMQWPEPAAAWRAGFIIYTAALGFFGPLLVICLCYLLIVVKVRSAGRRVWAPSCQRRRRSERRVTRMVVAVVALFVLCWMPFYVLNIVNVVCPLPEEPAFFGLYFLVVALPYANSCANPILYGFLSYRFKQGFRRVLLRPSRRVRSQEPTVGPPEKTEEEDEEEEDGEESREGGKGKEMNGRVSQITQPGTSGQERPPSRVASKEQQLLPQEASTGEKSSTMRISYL
Protocol: as §1
The protocol for sst3 assay was adapted from Liapakis, G., Fitzpatrick, D., Hoeger, C., Rivier, J., Vandlen, R. and Reisine, T. (1996) “Identification of ligand binding determinants in the somatostatin receptor subtypes 1 and 2.”J. Biol. Chem. 271(24): 20331-20339, 1996; and Patel, Y. C. and Srikant, C. B. (1994) “Subtype selectivity of peptide analogs for all five cloned human somatostatin receptors (hsstr 1-5).” Endocrinology 135 (6): 2814-2817, 1994. The protocol were and can be conducted according to the following conditions.
as §2

Somatostatin sst4 = target: T3, Somatostatin sst4 (Homo sapiens, UniProt P31391); test: Somatostatin sst4 radioligand binding assay; settings: for inhibition at 10 µM / % inh: Conc 10 μM (Conc not given in some rows)
T3 construct: host or cells: CHO-K1
T3 sequence (P31391 whole entry): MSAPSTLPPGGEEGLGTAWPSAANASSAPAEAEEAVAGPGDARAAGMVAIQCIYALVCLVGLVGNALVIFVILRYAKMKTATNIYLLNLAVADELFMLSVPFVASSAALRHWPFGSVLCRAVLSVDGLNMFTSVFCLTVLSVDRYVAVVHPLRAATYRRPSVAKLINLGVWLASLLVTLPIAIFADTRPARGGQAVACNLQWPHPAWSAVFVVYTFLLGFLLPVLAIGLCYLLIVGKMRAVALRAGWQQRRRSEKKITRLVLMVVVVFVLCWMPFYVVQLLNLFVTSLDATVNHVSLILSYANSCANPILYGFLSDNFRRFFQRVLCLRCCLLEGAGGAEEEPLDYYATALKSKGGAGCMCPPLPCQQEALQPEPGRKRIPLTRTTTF
Protocol: as §1
The protocol for sst4 assay was adapted from Patel, Y. C. and Srikant, C. B. (1994) “Subtype selectivity of peptide analogs for all five cloned human somatostatin receptors (hsstr 1-5).” Endocrinology 135 (6): 2814-2817, 1994. The protocol were and can be conducted according to the following conditions.
as §2

Sst5 = target: T4, Sst5 (Cavia porcellus, UniProt H0W1F1); test: Sst5 (functional) assay, Vas def gp; settings: Table 4, Conc 30 μM; for activation at 30 µM: read-out: % Ag
T4 sequence (H0W1F1 1-365): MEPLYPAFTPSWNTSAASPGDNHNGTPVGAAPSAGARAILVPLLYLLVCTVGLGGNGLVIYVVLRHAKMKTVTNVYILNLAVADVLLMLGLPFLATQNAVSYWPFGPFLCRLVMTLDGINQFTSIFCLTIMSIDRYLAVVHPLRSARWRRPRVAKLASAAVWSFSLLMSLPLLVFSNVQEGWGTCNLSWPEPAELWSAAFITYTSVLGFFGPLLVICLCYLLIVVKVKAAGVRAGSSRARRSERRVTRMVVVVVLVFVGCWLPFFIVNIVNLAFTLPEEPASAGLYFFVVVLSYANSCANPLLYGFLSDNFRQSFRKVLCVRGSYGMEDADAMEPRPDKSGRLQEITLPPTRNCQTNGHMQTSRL

[1] = Hill coefficient of competitive binding curve

Compound | IC50 (Somatostatin sst1; Table 4, human) | Ki (Somatostatin sst1; Table 4, human) | nH (Somatostatin sst1; Table 4, human) | inhibition at 10 µM (Somatostatin sst1; Table 4, human) | IC50 (Somatostatin sst 3; Table 4, human) | Ki (Somatostatin sst 3; Table 4, human) | nH (Somatostatin sst 3; Table 4, human) | inhibition at 10 µM (Somatostatin sst 3; Table 4, human) | IC50 (Somatostatin sst4; Table 4, human) | Ki (Somatostatin sst4; Table 4, human) | nH (Somatostatin sst4; Table 4, human) | inhibition at 10 µM (Somatostatin sst4; Table 4, human) | other results
CN1C(=O)N(Cc2c[nH]c3ccccc23)C(=O)C12CCN(C(=O)CCCN)c1cc(Oc3ccccc3)ccc12 (stereo not drawn) [Compound A, 7-phenoxy-3,4-dihydro-2H-quinoline-1-(4-amino-butanonyl)-4-spiro-5′-1′-methyl-3′-(1H-indol-3-ylmethyl)-imidazolidine-2′,4′-dione] | – | – | 0.433 | 54% | – | – | 0.564 | 56% | – | – | 0.504 | 50% | IC50 (Somatostatin sst1): 6.39 µM; Ki (Somatostatin sst1; Cheng-Prusoff from IC50): 6.07 µM; nH (Somatostatin sst1; [1]): 0.433; IC50 (Somatostatin sst 3): 6.59 µM; Ki (Somatostatin sst 3; Cheng-Prusoff from IC50): 5.85 µM; nH (Somatostatin sst 3; [1]): 0.564; IC50 (Somatostatin sst4): 6 µM; Ki (Somatostatin sst4; Cheng-Prusoff from IC50): 5.27 µM; nH (Somatostatin sst4; [1]): 0.504; activation at 30 µM (Sst5): 61%
7-(4-methoxy-phenoxy)-3,4-dihydro-2H-quinoline-1-(4-aminobutyl-1-yl-)-4-spiro-5′-1′-methy-3′-[2-(1H-indol-3-yl-ethyl]-imidazoline-2′4′-dione [G] | – | – | 0.67 | – | – | – | 0.985 | – | – | – | 0.786 | – | % inh (Somatostatin sst1; Table 4, human): 64%; % inh (Somatostatin sst 3; Table 4, human): 60%; % inh (Somatostatin sst4; Table 4, human): 68%
Cc1ccc(Oc2ccc3c(c2)N(CCCCN)CCC32C(=O)N(C)C(=O)N2Cc2c[nH]c3ccccc23)cc1 (stereo not drawn) [D, 7-Tolyloxy-3′-4′-dihydro-2H-quinoline-1-(aminobutan-1yl)-4-spiro-5′-1′-(1H-indol-3-yl-methyl)-3′methyl-imidazolidine-2′4′-dione] | 0.807 µM | 0.767 µM | 0.654 | 84% | 7.05 µM | 6.26 µM | 2.34 | 68% | 5.13 µM | 4.51 µM | 1.15 | 68% | –
CN1C(=O)N(Cc2c[nH]c3ccccc23)C2(CCN(CCCCN)c3cc(Oc4ccccc4)ccc32)C1=O (stereo not drawn) [Compound B, 7-phenoxy-3,4-dihydro-2H-quinoline-1-(4-butylamine)-4-spiro-5′-1′-(1H-indol-3-ylmethyl)-3′-methyl-imidazolidine-2′,4′-dione] | – | – | 0.62 | 57% | – | – | 0.722 | 60% | – | – | – | 39% | IC50 (Somatostatin sst1): 3.25 µM; Ki (Somatostatin sst1; Cheng-Prusoff from IC50): 3.09 µM; nH (Somatostatin sst1; [1]): 0.62; IC50 (Somatostatin sst 3): 5.84 µM; Ki (Somatostatin sst 3; Cheng-Prusoff from IC50): 5.18 µM; nH (Somatostatin sst 3; [1]): 0.722
7-Phenoxy-3′-4′-dihydro-2H-quinoline 1-(methylpiperidine-4-yl)-4-spiro-5′-1′-(1H-indole-3yl-methyl)-3′-methyl-imidazoline-2′-4′-dione | – | – | 1.16 | – | – | – | 1.3 | – | – | – | 1.37 | – | % inh (Somatostatin sst1; Table 4, human): 89%; % inh (Somatostatin sst 3; Table 4, human): 86%; % inh (Somatostatin sst4; Table 4, human): 89%
CN1C(=O)N(Cc2c[nH]c3ccccc23)C2(CCN(C(=O)CCCN)c3cc(Oc4ccccc4)ccc32)C1=O (stereo not drawn) [C, 7-phenoxy-3,4-dihydro-2H-quinoline-1-(4-amino-butyl-1-one)-4-spiro-5′-1′-(1H-indol-3-ylmethyl)-3′-methyl-imidazoline-2′,4′-dione] | – | – | – | – | – | – | – | – | – | – | – | – | % inh (Somatostatin sst1; Table 4, human): 24%; % inh (Somatostatin sst 3; Table 4, human): 25%; % inh (Somatostatin sst4; Table 4, human): 32%
Somatostatin-14 [reference compound] | – | – | – | – | – | – | – | – | – | – | – | – | nH (Somatostatin sst1; [1]): 0.628 and 0.747; nH (Somatostatin sst 3; [1]): 0.73 and 0.775; nH (Somatostatin sst4; [1]): 1.02

The next lines start with results.

IC50 (Somatostatin sst1; Table 4, human) | Ki (Somatostatin sst1; Table 4, human) | nH (Somatostatin sst1; Table 4, human) | inhibition at 10 µM (Somatostatin sst1; Table 4, human) | IC50 (Somatostatin sst 3; Table 4, human) | Ki (Somatostatin sst 3; Table 4, human) | nH (Somatostatin sst 3; Table 4, human) | inhibition at 10 µM (Somatostatin sst 3; Table 4, human) | IC50 (Somatostatin sst4; Table 4, human) | Ki (Somatostatin sst4; Table 4, human) | nH (Somatostatin sst4; Table 4, human) | inhibition at 10 µM (Somatostatin sst4; Table 4, human) | Compound | other results
0.699 µM | 0.664 µM | 1.28 | 69% | 3.71 µM | 3.29 µM | 0.915 | 72% | 0.754 µM | 0.663 µM | 1.25 | 72% | CN1C(=O)N(CCc2c[nH]c3ccccc23)C(=O)C12CCN(CCCCN)c1cc(Oc3ccc4c(c3)OCO4)ccc12 (stereo not drawn) [J, 7-(Benzo-[1,3]-dioxol-5-yloxy)-3′-4′-dihydro-2H-quinoline-1-(4-amino-butan-1yl)-4-spiro-5′-1′-methyl-3′[2-(-1H-indol-3-yl)-ethyl]-imidazolidine-2′4′-dione] | activation at 30 µM (Sst5): -11%; inhibition at 30 µM (Sst5; guinea pig, read-out: % Ant): 1%
3.38 µM | 3.21 µM | 0.598 | 66% | 7.96 µM | 7.06 µM | 0.977 | 56% | 2.62 µM | 2.3 µM | 1.16 | 71% | Cc1ccc(Oc2ccc3c(c2)N(CCCCN)CCC32C(=O)N(CCc3c[nH]c4ccccc34)C(=O)N2C)cc1C (stereo not drawn) [I] | –
1.24 µM | 1.18 µM | 1.38 | 66% | 7.58 µM | 6.73 µM | 0.922 | 57% | 0.649 µM | 0.57 µM | 1 | 68% | Cc1ccc(Oc2ccc3c(c2)N(CCCCN)CCC32C(=O)N(CCc3c[nH]c4ccccc34)C(=O)N2C)cc1 (stereo not drawn) [H, 7-Tolyloxy-3′-4′-dihydro-2H-quinoline-1-(4-amino-butan-1yl)-4-spiro-5′-1′-methyl-3′[2-(1H-indol-3-yl)-ethyl]-imidazolidine-2′4′-dione] | –
1.32 µM | 1.25 µM | 0.992 | 87% | – | – | – | – | – | – | – | – | CN1C(=O)N(CCc2c[nH]c3ccccc23)C(=O)C12CCN(CCCCN)c1cc(O)ccc12 (stereo not drawn) [F] | –
